Test results as given in publication PMC7615250 (Cell reports, 2023).

Legend:
NPR-34 = assay: Aequorin-based calcium mobilization assay; format: cell-based, C. elegans; conditions: CHO/mtAEQ/Gα16 cells expressing NPR-34; aequorin luminescence; n ≥ 6
SEB-2 = SEB-2 (Caenorhabditis elegans, UniProt P30650); format: cell-based, C. elegans; conditions: n ≥ 6
Chain of SEB-2 (P30650 whole entry, looked up): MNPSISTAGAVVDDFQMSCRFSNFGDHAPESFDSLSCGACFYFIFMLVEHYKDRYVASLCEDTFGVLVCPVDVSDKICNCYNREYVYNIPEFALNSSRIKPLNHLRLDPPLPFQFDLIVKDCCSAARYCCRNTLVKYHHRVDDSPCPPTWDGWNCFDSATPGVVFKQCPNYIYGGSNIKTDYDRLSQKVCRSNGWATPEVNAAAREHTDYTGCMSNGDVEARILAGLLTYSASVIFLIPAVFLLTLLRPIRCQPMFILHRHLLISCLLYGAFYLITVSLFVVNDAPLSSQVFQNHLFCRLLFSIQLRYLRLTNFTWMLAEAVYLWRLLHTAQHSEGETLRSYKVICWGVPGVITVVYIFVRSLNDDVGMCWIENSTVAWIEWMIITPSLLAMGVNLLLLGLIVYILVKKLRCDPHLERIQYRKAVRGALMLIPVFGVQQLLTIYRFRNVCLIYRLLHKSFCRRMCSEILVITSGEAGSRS

Row | Substance | receptor activation (calcium response) (NPR-34) | receptor activation (calcium response) (SEB-2)
1 | LDCRKFSFAPACRGIML; C3–C12 (disulfide) [SNET-1] | activate | –
2 | NRQCLLNAGLSQGCDFSDLLHAQTQARKFMSFAGPamide; C4–C14 (disulfide) [NLP-73] | – | activate
